Patent publication US8586719B2, “Triterpenes for modulating gene expression and cell membrane, and as antiprotozoal agents” (Pacific Arrow Limited, priority 2005, dated 2013)
Values after ≈ are worked out from the molar mass of the structure shown. Like-named read-outs stand apart in the source and are kept apart here.

Key:
[1] = system: Leishmania Major (promastigotes); assay: Cell growth of Leishmania parasites by MTT assay; format: cell-based; details: for IC50: Leishmania major, read-out: IC50, cytotoxic to Leishmania Major (promastigotes)
Method: Method: Leishmania parasites (Leishmania major: MRHO/SU/59/P/LV39) were grown in culture medium in a T75 flask at room temperature. Promastigotes of Leishmania major (approximately 40 million per ml) were used in the experiment. 1.2 ml cell culture was transferred to a well of the 24-wells plate. Saponin Y10 (0.2 ml in medium) with different concentrations (final 6.25-200 ug/ml) was added to culture and cells were grown for 1-5 days at room temperature. At the end of drug-treatment, 150 ul of MTT (5 mg/ml in PBS) was added to each well and incubated for 4 hours. Formazan formed in cells was dissolved with DMSO and the OD at 490 nm was determined by an ELISA reader.

Fibronectin [2] = assay: Fibronectin secretion from ES2 cells; format: cell-based, human
Method: (§1) Reduction of Fibronectin secretion from ES2 cells after xanifolia-Y treatment. • (Results of F1, F3, F4, F5, F7, F8, F11, F12A, F15, F16, F17) Data in PCT/US2008/002086, 1188-ALA-PCT, filed Feb. 15, 2008 are incorporated herein by reference • (F11) For lung carcinoma cells (H460), at concentration of 20 ug/ml, there are inhibitions of Fibronectin secretion ranged from 20-60%. • (F12A) For bladder carcinoma cells (HTB-9), Xanifolia-Y (10 ug/ml) inhibits 50% of Fibronectin secretion. • (F15) In liver HepG2 cells. 10 ug/ml of xanifolia-Y inhibits 42% secretion of Fibronectin. • (F16) Incubation of brain glioblastoma T98G cells with 10 ug/ml of xanifolia-Y inhibits 27% Fibronectin secretion and with 20 ug/ml Y inhibits 74% Fibronectin secretion. • (F17) For skin SK-MeI-5 cells, the inhibition is 40-57% with 20 ug/ml of Xanifolia-Y.

Fibronectin [3] = assay: Fibronectin secretion, skin SK-MEL-5 cells; format: cell-based, human; details: Skin SK-MEL-5; concentration 10 (label suffix)
Method: as §1

Fibronectin [4] = assay: Fibronectin secretion, liver HepG2 cells; format: cell-based, human; details: 10 ug/ml (table: label suffix -10)
Method: as §1

Fibronectin [5] = assay: Fibronectin secretion, lung carcinoma cells (H460); format: cell-based, human; details: Lung H460; concentration 10 (label suffix)
Method: as §1

Fibronectin [6] = assay: Fibronectin secretion, brain glioblastoma T98G cells; format: cell-based, human; details: Brain T98G; 10 ug/ml (table: label suffix -10)
Method: as §1

Fibronectin [7] = assay: Fibronectin secretion, bladder carcinoma cells (HTB-9); format: cell-based, human; details: Bladder HTB-9; 10 ug/ml (table: label suffix -10)
Method: as §1

cancer cells = assay: Anticancer activity of alkaline-hydrolysed saponins (cells not stated); format: cell-based; details: after removal of acyl groups by alkaline hydrolysis
[8] = concentration 10 (label suffix; text uses ug/ml)

Molecule `C/C=C(/C)C(=O)O[C@H]1[C@H](OC(=O)/C(C)=C\C)[C@@]23C(CC1(C)C)[C@]1(CCC4[C@@]5(C)CC[C@H](O)C(C)(C)C5CC[C@@]4(C)[C@]1(C)C[C@H]2O)O[C@@H]3O` (stereo partly shown) [ACH-Mb5] has an IC50 ([1]; MTT assay, promastigotes) of 18 µg/mL (≈ 26.8 µM).

With `C/C=C(/C)C(=O)O[C@H]1[C@H](OC(=O)C(C)C)[C@@]2(CO)C(CC1(C)C)C1=CCC3[C@@]4(C)CC[C@H](O[C@@H]5OC(C(=O)O)[C@@H](O)C(O[C@@H]6O[C@@H](CO)C(O)C6O)C5O[C@@H]5OC(CO)[C@H](O)C(O)C5O)C(C)(C)C4CC[C@@]3(C)[C@]1(C)[C@@H](O)[C@H]2O` (stereo partly drawn) [Y0, 3-O-[β-D-galactopyranosyl(1→2)]-α-L-arabinofuranosyl(1→3)-β-D-glucuronopyranosyl-21-O-angeloyl, 22-O-(2-methylpropanoyl)-3β, 15α, 16α, 21β, 22α, 28-hexahydroxyolean-12-ene] the “% inhibition of Fibronectin secretion” value (Fibronectin [2]; [8]) was 34% and the “IC50, cytotoxic to Leishmania Major (promastigotes)” value (“IC50, cytotoxic to Leishmania Major” for short) ([1]; MTT assay, promastigotes) was 25 µg/mL (≈ 22.1 µM).

In the case of `C/C=C(/C)C(=O)O[C@H]1[C@H](OC(=O)/C(C)=C\C)[C@@]2(CO)C(CC1(C)C)C1=CCC3[C@@]4(C)CC[C@H](O[C@@H]5OC(C(=O)O)[C@@H](O)C(O[C@@H]6OC[C@@H](O)C(O)C6O)C5O[C@@H]5OC(CO)[C@H](O)C(O)C5O)C(C)(C)C4CC[C@@]3(C)[C@]1(C)C[C@H]2O` (stereo partly drawn) [Ba1, 3-O-[β-D-galactopyranosyl(1→2)]-β-D-xylopyranosyl(1→3)-β-D-glucuronopyranosyl-21-O-angeloyl, 22-O-angeloyl-3β, 15α, 21β, 22α, 28-pentahydroxyolean-12-ene], the “% inhibition of Fibronectin secretion” value (Fibronectin [3]) is reported as 10%, the “% inhibition of Fibronectin secretion” value (Fibronectin [4]) is reported as 33% and the “% inhibition of Fibronectin secretion” value (Fibronectin [2]; [8]) is reported as 30%. For the same molecule, the “% inhibition of Fibronectin secretion” value (Fibronectin [5]) was 19%, the “% inhibition of Fibronectin secretion” value (Fibronectin [6]) was 26% and the “IC50, cytotoxic to Leishmania Major” value ([1]; MTT assay, promastigotes) was 15 µg/mL (≈ 13.3 µM). The “% inhibition of Fibronectin secretion” value (Fibronectin [7]) was 25%.

For `C/C=C(/C)C(=O)O[C@H]1[C@H](OC(=O)/C(C)=C/C)[C@@]2(CO)C(CC1(C)C)C1=CCC3[C@@]4(C)CC[C@H](O[C@@H]5OC(C(=O)O)[C@@H](O)C(O[C@@H]6OC[C@@H](O)C(O)C6O)C5O[C@@H]5OC(CO)[C@H](O)C(O)C5O)C(C)(C)C4CC[C@@]3(C)[C@]1(C)C[C@H]2O` (stereo partly drawn) [Z12, 3-O-[β-D-galactopyranosyl(1→2)]-β-D-xylopyranosyl(1→3)-β-D-glucuronopyranosyl-21-O-angeloyl, 22-O-tigloyl-3β, 16α, 21β, 22α, 28-pentahydroxyolean-12-ene], the “IC50, cytotoxic to Leishmania Major” value ([1]; MTT assay, promastigotes) was 23 µg/mL (≈ 20.4 µM).

With `C/C=C(/C)C(=O)O[C@H]1[C@H](O)[C@@]2(COC(=O)C(C)CC)C(CC1(C)C)C1=CCC3[C@@]4(C)CC[C@H](O[C@@H]5OC(C(=O)O)[C@@H](O)C(O[C@@H]6O[C@@H](CO)C(O)C6O)C5O[C@@H]5OC(CO)[C@H](O)C(O)C5O)C(C)(C)C4CC[C@@]3(C)[C@]1(C)[C@@H](O)[C@H]2O` (stereo partly drawn) [Y7, 3-O-[β-D-galactopyranosyl-(1→2)]-α-L-arabinofuranosyl-(1→3)-β-D-glucuronopyranosyl-21-O-angeloyl-28-O-2-methylbutanoyl-3β, 15α, 16α, 21β, 22α, 28-hexahydroxyolean-12-ene] the “% inhibition of Fibronectin secretion” value (Fibronectin [2]; [8]) was 34% and the “IC50, cytotoxic to Leishmania Major” value ([1]; MTT assay, promastigotes) was 18 µg/mL (≈ 15.7 µM).

`CC=C(C)C(=O)OC1C(OC(=O)C(C)=CC)C23C(O)CC4(C)C5(C)CCC6C(C)(C)C(OC7OC(C(=O)O)C(O)C(OC8OC(CO)C(O)C(O)C8OC8OC(C)C(O)C(O)C8OC8OC(C)C(O)C(O)C8O)C7OC7OC(CO)C(O)C(O)C7O)CCC6(C)C5CCC4(OC2O)C3CC1(C)C` (stereo not shown) [Mb5] was tested, and the “% inhibition of Fibronectin secretion” value (Fibronectin [3]) was 15%, the “% inhibition of Fibronectin secretion” value (Fibronectin [4]) was 35% and the “% inhibition of Fibronectin secretion” value (Fibronectin [2]; [8]) was 35%. The “% inhibition of Fibronectin secretion” value (Fibronectin [5]) was 25%, the “% inhibition of Fibronectin secretion” value (Fibronectin [6]) was 33% and the “IC50, cytotoxic to Leishmania Major” value ([1]; MTT assay, promastigotes) was 15 µg/mL (≈ 10.2 µM). The “% inhibition of Fibronectin secretion” value (Fibronectin [7]) was 28%.

With `C/C=C(/C)C(=O)O[C@H]1[C@H](OC(C)=O)C(C)(C)CC2C3=CCC4[C@@]5(C)CC[C@H](O[C@@H]6OC(C(=O)OCCCC)[C@@H](O)C(O[C@@H]7O[C@@H](CO)C(O)C7O)C6O[C@@H]6OC(CO)[C@H](O)C(O)C6O)C(C)(C)C5CC[C@@]4(C)[C@]3(C)C[C@@H](O)[C@]21CO` (stereo partly drawn) [X, 3-O-{[β-D-galactopyranosyl(1→2)]-[α-L-arabinofuranosyl(1→3)]-β-D-glucuronopyranosidebutyl ester}-21-O-acetyl-22-O-angeloyl-3β,16α, 21β,22α, 28-pentahydroxyolean-12-ene] the “% inhibition of Fibronectin secretion” value (Fibronectin [2]; [8]) was 39%.

In the case of `C/C=C(/C)C(=O)O[C@@H]1C(O)[C@H](O[C@H]2[C@H](OC(C)=O)[C@@]3(CO)C(CC2(C)C)C2=CCC4[C@@]5(C)CC[C@H](O[C@@H]6OC(C(=O)O)[C@@H](O)[C@@H](O[C@@H]7O[C@@H](CO)[C@@H](O)C7O)C6O[C@@H]6OC(CO)[C@H](O)[C@@H](O)C6O)C(C)(C)C5CC[C@@]4(C)[C@]2(C)C[C@H]3O)OC(C)[C@@H]1OC(=O)/C(C)=C\C` (stereo partly drawn) [Y1, 3-O-[β-D-galactopyranosyl (1→2)]-α-L-arabinofuranosyl(1→3)-β-D-glucuronopyranosyl-21-O-(3,4-diangeloyl)-α-L-rhamnophyranosyl-22-O-acetyl-3β,16α, 21β, 22α, 28-pentahydroxyolean-12-ene], the IC50 [1] is reported as 23 µg/mL (≈ 17.5 µM).

For `CC1O[C@@H](OC2[C@H](OC3[C@H](O[C@H]4C(O[C@@H]5OC(CO)[C@H](O)[C@@H](O)C5O)[C@H](O[C@H]5CC[C@@]6(C)C(CC[C@]7(C)C6CC[C@]68O[C@H](O)[C@]9(C6CC(C)(C)[C@@H](O)[C@@H]9O)[C@H](O)C[C@]87C)C5(C)C)OC(C(=O)O)[C@H]4O)OC(CO)[C@H](O)[C@H]3O)OC(C)[C@H](O)[C@@H]2O)C(O)[C@@H](O)[C@H]1O` (stereo partly shown) [AKOH-Mb5], the anticancer activity (cancer cells) was “lost anticancer activity”, the “% inhibition of Fibronectin secretion” value (Fibronectin [2]; concentration 40 (label suffix)) was “No effect” and the “cytotoxic to Leishmania Major (promastigotes)” value ([1]; MTT assay, promastigotes) was “not cytotoxic”.

With `CC1(C)CC2C3=CCC4[C@@]5(C)CC[C@H](O[C@@H]6OC(C(=O)O)[C@@H](O)[C@@H](O[C@@H]7O[C@@H](CO)C(O)[C@@H]7O)C6O[C@@H]6OC(CO)[C@H](O)[C@@H](O)C6O)C(C)(C)C5CC[C@@]4(C)[C@]3(C)[C@@H](O)[C@@H](O)[C@@]2(CO)[C@@H](O)[C@@H]1O` (stereo partly shown) [AKOH-Y] the anticancer activity (cancer cells) was “lost anticancer activity” and the “cytotoxic to Leishmania Major (promastigotes)” value ([1]; MTT assay, promastigotes) was “not cytotoxic”.

With `CC=C(C)C(=O)OC1C(OC(=O)c2ccccc2)C(C)(C)CC2C3=CCC4C5(C)CCC(OC6OC(C(=O)OC)C(O)C(OC7OCC(O)C(O)C7O)C6OC6OC(CO)C(O)C(O)C6O)C(C)(C)C5CCC4(C)C3(C)CC(O)C21CO` (stereo not shown) [Ba4] the “% inhibition of Fibronectin secretion” value (Fibronectin [3]) was 10%, the “% inhibition of Fibronectin secretion” value (Fibronectin [4]) was 28% and the “% inhibition of Fibronectin secretion” value (Fibronectin [2]; [8]) was 28%. For the same molecule, the “% inhibition of Fibronectin secretion” value (Fibronectin [5]) was 18%, the “% inhibition of Fibronectin secretion” value (Fibronectin [6]) was 24% and the “% inhibition of Fibronectin secretion” value (Fibronectin [7]) was 30%.

In the case of `C/C=C(/C)C(=O)O[C@H]1[C@H](OC(=O)/C(C)=C\C)[C@@]2(CO)C(CC1(C)C)C1=CCC3[C@@]4(C)CC[C@H](O[C@@H]5OC(C(=O)O)[C@@H](O)C(O)C5O[C@@H]5OC(CO)[C@H](O)C(O)C5O)C(C)(C)C4CC[C@@]3(C)[C@]1(C)[C@@H](O)[C@H]2O` (stereo partly shown) [Y5], the “IC50, cytotoxic to Leishmania Major” value ([1]; MTT assay, promastigotes) is reported as 16 µg/mL (≈ 15.9 µM).
